Measurements: US7122541B2, “Methods of inhibiting metastases” (Rhode Island Hospital, priority 2001, dated 2006)
Entries after “also recorded” stand apart in the source; their conditions may differ.

Assays:
LS-180 cells [1] = assay: MTT cell proliferation assay; type: cell-based, human
Protocol: (§1) Cell proliferation was assessed using a standard MTT (3,(4,5-dimethylthiazol-2yl)2,5-diphenyltetrazolium bromide; Sigma, St. Louis, Mo.) dye at 570 nm. Cells were into seeded in 96-well microtiter plates (2×10^5 cells/well) using 200 μl of medium. After a 12 hour incubation, Taurolidine was applied for a period of 6, 9, 12, 24 or 48 hours. At each time point 20 μl of MTT (5 mg/ml) was added and the cells were incubated at 37° C. for an additional 30 minutes. The medium was removed and the dye was eluted using acidic isopropyl alcohol (0.04N HCl). Cell viability was measured using crystal violet dye. Cells were seeded and treated with Taurolidine as described for the MTT assay. The medium was then removed and the cells were stained and fixed using a crystal violet staining solution containing 0.75% Crystal violet, 50% EtOH, 0.25% NaCl, and 1.75% formaldehyde for 10 minutes at room temperature. After staining and fixation the cells were rinsed with water and air-dried. The crystal violet dye was eluted using a 1% SDS in PBS solution and the absorbance was measured at 540 nm in a microtiter plate reader.
(§2) The human LS-180 colon cancer cell line was incubated with 25, 50, 75, and 100 μm concentrations of Taurolidine, and an MTT assay was performed at 6, 9, 12, 24 and 48 hours after Taurolidine administration. An accompanying crystal violet assay was performed under the same conditions. […] Flow cytometry was also performed using bromodeoxyuridine (BrdU) to help quantify the proportion of cells in S phase and evaluate cell proliferation.

LS-180 cells [2] = assay: Crystal violet cell viability / adherent cell assay; type: cell-based, human
Protocol: as §1, §2

[3] = Lactate dehydrogenase (LDH) release cytotoxicity assay; type: cell-based, human; conditions: human, LS-180 cells
Protocol: (§3) Cytotoxicity was quantified using a standard lactate dehydrogenase cytotoxicity assay (Cytotoxicity Detection Kit, Roche). LS-180 cells (2.5×10^5 cell/well) were cultured in Falcon 96-well microtiter plates in a humidified incubator at 37° C., 5% CO2. […] Triton X-100 (1% final concentration) was used to lyse cells and determine the maximum release of LDH enzyme (high control). Cytotoxicity was determined as per the manufacturer's protocol, and the absorbance was measured at 490 nm in a microtiter plate reader.
(§4) Cytotoxicity was assessed by measuring lactate dehyhdrogenase (LDH) activity released from the cytosol of damaged cells. […] Taurolidine, even at a 400 μm concentration, produced minimal cytotoxic effects on LS-180 cells. […] This is in contradistinction to previously reported in vitro studies of Taurolidine on malignant cell lines.

LS-180 cells [4] = assay: as above; type: cell-based, human; conditions: 100, 200 and 400 μM, 24 hours
Protocol: as §3, §4

LS-180 cells [5] = assay: Flow cytometry (propidium iodide / BrdU) cell cycle and DNA content analysis; type: cell-based, human
Protocol: FIGS. 4A–D are histograms showing that Taurolidine induces apoptosis in human colon cancer cells. In FIGS. 4A–C, LS-180 cells were treated with 100, 200, and 400 μM concentrations of Taurolidine. After 24 hours the cells were harvested by trypsinization, labeled with propidium iodide, and their DNA content was measured by flow cytometry. The percentage of subdiploid DNA content, representing DNA degradation in apoptotic cells, is shown. […] LS-180 cells were treated with 100, 200, and 400 -μM concentrations of Taurolidine and harvested by trypsinization at 12, 24, and 36 hours. Caspase-3 activity was assessed by its ability to cleave the DEVD-pNA colorimetric substrate.
LS-180 cells were cultured in 100 mm Falcon plates (5×10^6 cells/plate) for 12 hours to become adherent. Cells were incubated for 12, 14 and 48 hours with complete medium (control) or 50, 100 and […] concentrations of Taurolidine. The cells were then treated with 10 μm bromodeoxyuridine (BrdU) for 30 minutes, and both floating and adherent cells were harvested for fixation in 70% ethanol. The DNA was denatured using 2N HCl and labeled with FITC-conjugated anti-BrdU antibody (anti-bromodeoxyuridine-fluorescein monoclonal antibody; Roche, Indianapolis, Ind.). Before analysis by flow cytometry the cells were treated with ribonuclease (Dnase-free ribonuclease, Roche, Indianapolis, Ind.) and propidium iodide (Sigma, St. Louis, Mo.). FACs analysis was performed on a FACscan flow cytometer (Becton Dickinson, N.J.).

caspase-3 = assay: Caspase-3 colorimetric assay (DEVD-pNA substrate); type: cell-based, human
Protocol: To measure caspase activity, cells were incubated in six-well Falcon plates (1×10^6 cells/well) and harvested by trypsinization. The cells were then pelleted and lysed as per the manufacturer's recommendation (MBL, Nagoya, Japan) and the cytosolic protein concentration was quantified using a BCA protein assay reagent (Pierce, Rockford, Ill.). The caspase-3 assay was performed in a 96-well microtiter plate using 100 μg of protein and 5 μl of 4 mM DEVD-pNA Substrate (CPP32/caspase-3 Colorimetric Protease Assay Kit; MBL, Nagoya, Japan). The protein and reagent were then incubated for 2 hours at 37° C. A background reading from cell lysates and buffer without DEVD-pNA substrate was subtracted from samples; the assay was performed in triplicate. Samples were read at 405 nm in a microtiter plate reader.
Caspase Inhibitor I (Z-VAD-fink; z-Val-Ala-Asp(OMe)-CH2F, Calbiochem; La Jolla, Calif.) was used from a 21 mM stock in DMSO stored at −20° C. until use and then diluted into tissue culture medium immediately prior to its application. After a 2-hour incubation with the caspase inhibitor, cells were treated with Taurolidine. […] Untreated cells received an equivalent dilution of DMSO.

LS-180 cells [6] = assay: Light microscopy / Hoechst 33258 staining for apoptotic morphology; type: cell-based, human; conditions: even at 400 μm; light microscopy or Hoechst 33258
[7] = system: LS-180 hepatic metastases; assay: Liver metastases model: splenic injection of LS-180 cells in nude mice, IP treatment; type: in vivo; conditions: for Serum CEA: mean ± SE, n = 20, after 3 weeks IP Taurolidine; for reduction in serum CEA levels vs control: 3 weeks IP therapy; for reduction in liver weight vs control: daily IP, 5 days/week, 3 weeks
Protocol: General anesthesia was induced using 400 μl choral hydrate (2%). Using sterile conditions, a vertical paramedian incision was used to expose the spleen. An intrasplenic injection of 1×10^5 tumor cells in 0.4 ml of serum free medium was performed, followed by splenectomy using hemoclips for vascular control. The incision was then closed using surgical staples. Beginning post injections days 2 or 5, mice received IP injections of 0.45% normal saline (n=10 per group) or Taurolidine (n=20 per group). Taurolidine (Boehringer Ingelheim, Germany) was given as a daily 0.5 ml IP injection of 2% solution ([…]) for 5 consecutive days per week for a total of 3 weeks. The day following the last treatment of Taurolidine or 0.45% NS, the mice were sacrificed and examined for gross tumor. Blood was drawn from the right ventricle, immediately centrifuged, and serum collected for CEA assays. The livers were weighed and fixed in HistoFix and representative sections taken for H&E microscopic examination. In addition, 9 mice (n=3 per group) were used to study the tumor model. At days 5, 10 and 15, mice that received a splenic tumor cell injection without any further intervention were sacrificed to assess tumor burden at varying time points. The livers were assessed for gross tumor and submitted in toto for histologic examination.

LS-180 cells [8] = assay: WST-8 tetrazolium cell number assay; conditions: dose-dependent; concentration not given
[9] = dose-dependent, concentration not given
[10] = treatment begun 2 days after splenic tumor injection
[11] = treatment begun 5 days after splenic tumor injection

Compound: O=S1(=O)CCN(CN2CCS(=O)(=O)NC2)CN1 [Taurolidine, bis(1,1-dioxoperhydro-1,2,4-thiadiazinyl-4)methane]
- decrease by MTT assay (LS-180 cells [1]; 100 μm Taurolidine, present as early as 9 hours after exposure): 40–50%
- reduction in cell number (MTT assay) (LS-180 cells [1]; 100 μm, after 24 hours): 40–50%
- decrease in adherent tumor cells (MTT assay) (LS-180 cells [1]; [9]): 60%
- cell adherence (crystal violet assay) (LS-180 cells [2]; 10-400 μM Taurolidine): loss of cell adherence
- reduction in cell number (crystal violet assay) (LS-180 cells [2]; 100 μm, after 24 hours): 40–50%
- decrease in adherent tumor cells (crystal violet assay) (LS-180 cells [2]; [9]): 60%
- decrease in tumor cell viability (crystal violet assay) (LS-180 cells [2]; [9]): 85%
- cytotoxicity ([3]; 50, 100 and 400 μm, 12 or 24 hours, read-out: percent cytotoxicity (LDH release), all cases): < 2%
- cytotoxicity at 24 h, 50 µM ([3]; 50 μm, 24 hours, read-out: percent cytotoxicity (LDH release)): -0.07%
- cytotoxicity at 24 h, 100 µM ([3]; 100 μm, 24 hours, read-out: percent cytotoxicity (LDH release)): 0.15%
- cytotoxicity at 24 h, 400 µM ([3]; 400 μm, 24 hours, read-out: percent cytotoxicity (LDH release)): 1.58%
- cytolysis (culture medium LDH activity) (LS-180 cells [4]): no significant cytolysis
- sub-G1 peak by propidium iodide flow cytometry (LS-180 cells [5]; 50 and 100 μm, 24 hours): failed to demonstrate a sub-GI peak; also recorded: failed to demonstrate a sub-G1 peak
- sub-diploid DNA peak (DNA degradation in apoptotic cells) (LS-180 cells [5]; 100, 200 and 400 μM, 24 hours): dose dependent increase
- cell cycle progression / proliferation (flow cytometry, BrdU) (LS-180 cells [5]; treated vs untreated cells, 50 and 100 μm): no significant change in cell cycle progression; also recorded: no significant change in proliferation or cell cycle
- caspase-3 activity (caspase-3; 100, 200 and 400 μM, 12, 24 and 36 hours): dose-dependent increase; also recorded: dose dependent increase
- apoptotic morphology (LS-180 cells [6]): failed to demonstrate cell shrinkage, cytoplasmic condensation, nuclear fragmentation or blebbing
- tolerability / deaths during therapy ([7]; 10-mg per day IP, five consecutive days x 3 weeks): well tolerated, resulting in no deaths of animals; also recorded: all mice tolerated the full 3-week course of treatment
- Serum CEA ([7]; Day 2 group): 7.73 ± 0.52 ng/mL
- Serum CEA ([7]; Day 5 group): 11.88 ± 1.97 ng/mL
- gross hepatic tumor burden vs control ([7]; daily IP Taurolidine for 3 weeks, begun day 2 or 5): dramatic reduction in hepatic tumor involvement; also recorded: dramatic reduction of tumor burden; also recorded: striking decrease in tumor burden; also recorded: marked reduction in tumor burden; also recorded: marked decrease in tumor burden
- reduction in serum CEA levels vs control [7, 10]: 69%
- reduction in liver weight vs control [7, 10]: 18%
- reduction in serum CEA levels vs control [7, 11]: 78%
- reduction in liver weight vs control [7, 11]: 22%
- decrease in tumor cell viability (WST-8 assay) (LS-180 cells [8]): 85%

Compound: z-Val-Ala-Asp(OMe)-CH2F [Z-VAD-fmk]
- loss of cell adherence of Taurolidine-treated cells after caspase inhibition (crystal violet) (LS-180 cells [2]; 50-uM Z-VAD-fmk before Taurolidine): not affected
- caspase-3 activity in Taurolidine-treated cells after caspase inhibition (caspase-3; 50 μM Z-VAD-fmk before 100, 200, 400 μM Taurolidine, vs untreated LS-180 cells): no significant increase in caspase-3 activity
